Results: ChEMBL document CHEMBL1201862, “PubChem BioAssay data set” (2004)
Calls of active or inactive are those of the source.

Legend:
[1] = insulin promoter down-regulators in MIN6 cells, imaging, high-content screening, mouse beta cells (AID 1628); format: functional
[2] = cytotoxicity in MIN6 insulinoma cells, dose response, cytotoxicity control, cell-based, mouse insulinoma (AID 2122); format: functional;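 further: confirmatory high-throughput counterscreen run to flag cytotoxic compounds; mouse MIN-6 beta cells carrying an insulin promoter eGFP reporter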
[3] = biological target: Beta-2 adrenergic receptor (Homo sapiens, UniProt P07550); assay: beta2AR agonists driving receptor internalization, dose response, cell-based, FAP fluorogen, flow cytometry, cherry pick 1 (AID 588763); format: functional
[4] = inhibitors of firefly luciferase expression or activity, dose response, H4 neuroglioma cells, luminescence (AID 1990); format: functional, cell-based
[5] = inhibitors of SNCA 5'UTR-driven reporter translation, confirmation, H4 neuroglioma cells, luminescence (AID 1988); format: functional, cell-based
[6] = biological target: Acyl-homoserine lactone acylase PvdQ (Pseudomonas aeruginosa (strain LESB58), UniProt Q9I194); assay: P. aeruginosa PvdQ acylase inhibitors, dose response, biochemical, fluorescence, plate reader and imaging, cherry-picks (AID 493231)
HeLa = assay: HeLa cell cytotoxicity, dose response, cytotoxicity control, 48 h, plate reader, cherry-picks (AID 504942); format: functional, cell-based; conditions: Homo sapiens
Bcl-2-like protein 10 = Bcl-2-like protein 10 (Homo sapiens, UniProt Q9HD36); assay: Isothermal titration calorimetry (ITC) with Bcl-B and compounds active in primary screen. [Related pubchem assays (depositor defined):AID1693]; format: functional
Trypsin = Trypsin (Sus scrofa, UniProt P00761); assay: porcine trypsin inhibitors, dose response, selectivity assay for Rce1 protease inhibitor project, biochemical, quenched peptide fluorescence, cherry-pick (AID 488789)
CAAX prenyl protease 2 [7] = biological target: T1, CAAX prenyl protease 2 (Saccharomyces cerevisiae S288c, UniProt Q03530); format: biochemical
T1 sequence (Q03530 whole entry): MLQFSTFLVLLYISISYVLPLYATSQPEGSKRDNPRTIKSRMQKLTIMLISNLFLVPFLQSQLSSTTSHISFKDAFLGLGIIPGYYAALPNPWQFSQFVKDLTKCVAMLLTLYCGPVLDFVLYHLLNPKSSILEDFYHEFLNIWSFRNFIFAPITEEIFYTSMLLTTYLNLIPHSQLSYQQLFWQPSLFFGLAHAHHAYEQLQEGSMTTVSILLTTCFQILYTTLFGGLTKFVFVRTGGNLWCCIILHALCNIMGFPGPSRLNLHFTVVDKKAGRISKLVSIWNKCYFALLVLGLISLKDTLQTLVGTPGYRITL

CAAX prenyl protease 2 [8] = biological target: CAAX prenyl protease 2 (Homo sapiens, UniProt Q9Y256); assay: human Rce1 protease inhibitors, dose response, biochemical, yeast membranes, quenched-peptide fluorescence, cherry-pick (AID 588849)
[9] = biological target: T2, Endoribonuclease toxin MazF (Escherichia coli K-12, UniProt P0AE70); assay: MazF toxin RNase activators, dose response, biochemical, fluorescence, single-stranded RNA substrate, uHTS hits (AID 588481); format: functional
[10] = biological target: T2, Endoribonuclease toxin MazF; assay: fluorescent RNA oligo signal without MazF, dose response, counter-screen for MazEF activator project, biochemical, fluorescence, single-stranded RNase substrate (AID 588502); format: functional
DNA topoisomerase = DNA topoisomerase (Yersinia pestis, UniProt A0A2S9PM60); assay: Y. pestis Topo-I inhibitors, cleavage product readout, dose response, biochemical, cherry-pick (AID 588525)
INS1 [11] = assay: beta cell apoptosis inhibitors, cytokine rescue, dose response, luminescence, retest (AID 449756); format: functional, cell-based; conditions: Rattus norvegicus;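 further: cell death triggered by IL-1 beta plus TNF-alpha plus IFN-gamma mixture; protective hits raise ATP signal compared with cytokine alone wells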
Candida albicans [12] = assay: growth inhibition of resistant C. albicans, dose response, CaCi-8 strain, fluconazole, dry powder, set 4 (AID 488950); format: functional, organism-based
Candida albicans [13] = assay: fluconazole resistance reversal in C. albicans, dose response, CaCi-2 strain, Alamar Blue, dry powder, set 4 (AID 488943); format: functional, organism-based
Candida albicans [14] = assay: Candida albicans growth inhibition, agent alone, dose response, counter-screen for reversing antifungal drug resistance, CaCi-2 strain, no fluconazole, dry powder, set 4 (AID 488932); format: functional, organism-based
INS1 [15] = assay: protection of INS-1E cells from cytokine death, dose response, ATP luminescence, dry powder (AID 488844); format: functional, cell-based; conditions: Rattus norvegicus
INS1 [16] = assay: protection from cytokine-induced mitochondrial depolarization, dose response, cell-based, INS-1E, JC-1 fluorescence ratio, dry powder (AID 488931); format: functional; conditions: Rattus norvegicus
Phospholipase D1 = Phospholipase D1 (Homo sapiens, UniProt Q13393); assay: PLD1 inhibitor potency in cells, dose response (AID 602151); format: functional;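 further: cellular PLD1 assay in Calu-1 cells stimulated with PMA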
Phospholipase D2 = Phospholipase D2 (Homo sapiens, UniProt O14939); assay: PLD2 inhibitor potency in cells, dose response (AID 602147); format: functional;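 further: cellular assay in HEK293 cells overexpressing GFP-tagged PLD2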
Hexokinase-1 = Hexokinase-1 (Homo sapiens, UniProt P19367); assay: HK1 enzyme inhibition by HKDC1 hits, SAR follow-up, selectivity assay for HKDC1 inhibitor project, biochemical, set 2, resazurin fluorescence coupled readout (AID 588356); format: functional
Hexokinase HKDC1 = biological target: T3, Hexokinase HKDC1 (Homo sapiens, UniProt Q2TB90); assay: HKDC1 hexokinase inhibitors, SAR follow-up, biochemical, set 2 (AID 588355); format: functional
T3 sequence (Q2TB90 whole entry): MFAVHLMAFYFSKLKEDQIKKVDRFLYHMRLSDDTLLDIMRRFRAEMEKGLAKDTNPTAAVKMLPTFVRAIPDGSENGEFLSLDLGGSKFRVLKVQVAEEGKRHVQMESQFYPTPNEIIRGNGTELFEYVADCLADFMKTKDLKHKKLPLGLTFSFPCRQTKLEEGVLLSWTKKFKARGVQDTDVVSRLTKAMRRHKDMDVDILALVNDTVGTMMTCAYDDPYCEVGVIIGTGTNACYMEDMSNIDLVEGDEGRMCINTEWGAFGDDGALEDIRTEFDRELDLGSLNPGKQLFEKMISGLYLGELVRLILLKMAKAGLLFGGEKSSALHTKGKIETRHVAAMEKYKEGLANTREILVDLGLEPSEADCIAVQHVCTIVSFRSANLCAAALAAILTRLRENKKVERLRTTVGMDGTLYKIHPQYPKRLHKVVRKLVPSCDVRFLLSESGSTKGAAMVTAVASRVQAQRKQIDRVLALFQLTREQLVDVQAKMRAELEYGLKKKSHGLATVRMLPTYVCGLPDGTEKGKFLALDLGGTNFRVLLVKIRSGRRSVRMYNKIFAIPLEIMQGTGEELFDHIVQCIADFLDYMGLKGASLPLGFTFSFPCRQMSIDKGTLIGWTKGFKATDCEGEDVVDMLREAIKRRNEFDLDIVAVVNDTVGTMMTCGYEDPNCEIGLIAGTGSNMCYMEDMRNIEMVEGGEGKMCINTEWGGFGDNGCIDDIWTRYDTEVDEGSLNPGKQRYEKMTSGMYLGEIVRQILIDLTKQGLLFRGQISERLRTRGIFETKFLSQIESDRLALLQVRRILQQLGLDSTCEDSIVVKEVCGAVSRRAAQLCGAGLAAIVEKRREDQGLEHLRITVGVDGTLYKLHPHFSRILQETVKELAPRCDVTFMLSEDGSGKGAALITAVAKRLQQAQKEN

[17] = biological target: T4, Short transient receptor potential channel 4 (Mus musculus, UniProt Q9QUQ5); assay: SAR Analysis for the identification of selective inhibits of the transient receptor potential cation channel C4 (TRPC4): Automated Electrophysiology. [Related pubchem assays (depositor defined):AID2256]; format: functional
T4 sequence (Q9QUQ5 whole entry): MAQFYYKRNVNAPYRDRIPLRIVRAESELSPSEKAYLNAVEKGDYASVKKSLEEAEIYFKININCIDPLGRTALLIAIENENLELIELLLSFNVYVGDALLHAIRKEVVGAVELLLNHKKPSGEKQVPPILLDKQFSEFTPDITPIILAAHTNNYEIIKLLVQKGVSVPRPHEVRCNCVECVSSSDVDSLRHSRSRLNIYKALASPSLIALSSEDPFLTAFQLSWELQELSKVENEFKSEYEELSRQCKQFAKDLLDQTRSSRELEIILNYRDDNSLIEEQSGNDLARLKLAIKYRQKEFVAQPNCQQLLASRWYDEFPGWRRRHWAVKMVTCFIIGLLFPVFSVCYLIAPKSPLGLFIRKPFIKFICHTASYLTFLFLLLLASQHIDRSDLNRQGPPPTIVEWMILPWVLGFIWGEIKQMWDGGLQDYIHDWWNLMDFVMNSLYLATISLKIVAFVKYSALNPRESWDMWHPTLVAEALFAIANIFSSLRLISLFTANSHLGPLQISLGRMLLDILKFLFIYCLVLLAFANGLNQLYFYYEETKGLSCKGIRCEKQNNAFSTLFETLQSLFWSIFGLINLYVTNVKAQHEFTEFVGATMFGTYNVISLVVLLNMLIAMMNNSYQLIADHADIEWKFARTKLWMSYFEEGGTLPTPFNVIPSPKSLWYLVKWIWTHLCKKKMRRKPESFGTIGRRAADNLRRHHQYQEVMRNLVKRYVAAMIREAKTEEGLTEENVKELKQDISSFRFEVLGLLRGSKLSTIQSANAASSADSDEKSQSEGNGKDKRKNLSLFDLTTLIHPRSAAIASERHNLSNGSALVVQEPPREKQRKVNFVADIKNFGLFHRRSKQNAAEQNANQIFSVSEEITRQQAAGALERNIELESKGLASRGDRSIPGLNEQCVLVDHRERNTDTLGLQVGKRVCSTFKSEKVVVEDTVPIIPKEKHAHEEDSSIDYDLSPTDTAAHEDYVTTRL

[18] = biological target: Short transient receptor potential channel 6 (Mus musculus, UniProt Q61143); assay: TRPC6 inhibition potency of TRPC4 inhibitor analogs, dose response, selectivity assay for selective TRPC4 inhibitor project, HEK293 cells, membrane potential dye, IC50 (AID 492987); format: functional, cell-based
[19] = biological target: T4, Short transient receptor potential channel 4; assay: TRPC4 inhibitor concentration-response, dose response, cell-based, HEK293 TRPC4/mu-opioid, DAMGO stimulus, Fluo-4 (AID 492994); format: functional

T2 sequence (P0AE70 whole entry): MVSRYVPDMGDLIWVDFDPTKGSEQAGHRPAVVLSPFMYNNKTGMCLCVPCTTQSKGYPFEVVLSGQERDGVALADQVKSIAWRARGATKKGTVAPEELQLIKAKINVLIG
Trypsin, sequence (P00761 whole entry): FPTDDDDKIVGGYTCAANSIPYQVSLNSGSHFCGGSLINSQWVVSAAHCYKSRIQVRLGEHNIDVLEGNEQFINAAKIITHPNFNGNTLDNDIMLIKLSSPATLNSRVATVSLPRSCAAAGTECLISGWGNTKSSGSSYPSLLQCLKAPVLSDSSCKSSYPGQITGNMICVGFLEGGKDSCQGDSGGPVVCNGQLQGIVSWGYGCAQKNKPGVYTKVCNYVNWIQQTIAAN
Short transient receptor potential channel 6, sequence (Q61143 whole entry): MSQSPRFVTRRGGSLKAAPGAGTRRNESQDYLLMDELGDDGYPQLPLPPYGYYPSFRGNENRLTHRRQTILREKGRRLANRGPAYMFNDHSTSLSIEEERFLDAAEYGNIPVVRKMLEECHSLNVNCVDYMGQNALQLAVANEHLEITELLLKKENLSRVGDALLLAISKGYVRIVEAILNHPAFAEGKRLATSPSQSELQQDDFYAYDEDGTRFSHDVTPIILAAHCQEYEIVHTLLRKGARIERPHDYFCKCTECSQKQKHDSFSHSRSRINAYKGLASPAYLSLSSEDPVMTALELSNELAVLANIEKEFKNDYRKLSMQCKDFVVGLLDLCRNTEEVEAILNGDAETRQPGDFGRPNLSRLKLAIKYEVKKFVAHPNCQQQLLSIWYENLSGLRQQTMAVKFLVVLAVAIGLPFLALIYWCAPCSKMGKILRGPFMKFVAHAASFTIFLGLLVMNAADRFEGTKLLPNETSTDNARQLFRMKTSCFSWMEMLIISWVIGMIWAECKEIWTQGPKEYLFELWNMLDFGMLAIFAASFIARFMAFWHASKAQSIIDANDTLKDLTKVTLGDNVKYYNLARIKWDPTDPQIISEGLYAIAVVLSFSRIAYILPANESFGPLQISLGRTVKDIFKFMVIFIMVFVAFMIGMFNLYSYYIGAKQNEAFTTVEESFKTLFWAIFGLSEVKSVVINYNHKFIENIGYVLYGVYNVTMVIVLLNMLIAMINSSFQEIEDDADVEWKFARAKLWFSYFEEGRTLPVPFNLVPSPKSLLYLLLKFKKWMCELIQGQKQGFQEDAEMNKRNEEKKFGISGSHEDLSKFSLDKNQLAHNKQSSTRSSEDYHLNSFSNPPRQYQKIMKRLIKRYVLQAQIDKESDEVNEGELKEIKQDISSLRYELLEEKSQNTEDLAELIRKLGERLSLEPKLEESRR
Phospholipase D1, sequence (Q13393 whole entry): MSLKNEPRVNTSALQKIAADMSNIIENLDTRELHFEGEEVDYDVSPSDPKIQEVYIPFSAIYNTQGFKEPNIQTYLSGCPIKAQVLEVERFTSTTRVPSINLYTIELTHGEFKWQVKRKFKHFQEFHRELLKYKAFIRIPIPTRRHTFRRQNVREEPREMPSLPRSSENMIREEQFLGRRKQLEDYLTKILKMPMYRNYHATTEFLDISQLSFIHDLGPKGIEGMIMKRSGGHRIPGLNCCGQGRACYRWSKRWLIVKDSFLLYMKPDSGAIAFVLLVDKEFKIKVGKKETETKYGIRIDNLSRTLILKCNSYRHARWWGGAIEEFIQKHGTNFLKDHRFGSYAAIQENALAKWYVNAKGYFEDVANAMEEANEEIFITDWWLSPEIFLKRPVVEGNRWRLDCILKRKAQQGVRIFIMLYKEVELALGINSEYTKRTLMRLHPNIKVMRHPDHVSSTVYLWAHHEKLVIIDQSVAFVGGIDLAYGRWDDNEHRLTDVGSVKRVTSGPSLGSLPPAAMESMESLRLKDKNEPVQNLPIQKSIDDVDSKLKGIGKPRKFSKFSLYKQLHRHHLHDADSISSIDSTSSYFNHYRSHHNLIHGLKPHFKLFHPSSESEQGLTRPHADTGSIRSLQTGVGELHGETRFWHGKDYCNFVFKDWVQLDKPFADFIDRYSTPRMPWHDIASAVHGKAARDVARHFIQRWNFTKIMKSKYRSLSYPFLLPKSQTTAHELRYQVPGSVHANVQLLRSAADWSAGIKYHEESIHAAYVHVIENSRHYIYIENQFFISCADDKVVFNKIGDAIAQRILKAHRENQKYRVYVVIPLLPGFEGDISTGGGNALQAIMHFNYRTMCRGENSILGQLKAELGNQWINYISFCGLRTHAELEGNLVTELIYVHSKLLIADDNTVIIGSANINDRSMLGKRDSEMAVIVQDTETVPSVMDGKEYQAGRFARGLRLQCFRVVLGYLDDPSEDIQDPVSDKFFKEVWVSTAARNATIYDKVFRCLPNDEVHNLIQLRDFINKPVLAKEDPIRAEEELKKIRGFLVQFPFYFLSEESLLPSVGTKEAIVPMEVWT
CAAX prenyl protease 2 (Homo sapiens, UniProt Q9Y256), sequence (Q9Y256 whole entry): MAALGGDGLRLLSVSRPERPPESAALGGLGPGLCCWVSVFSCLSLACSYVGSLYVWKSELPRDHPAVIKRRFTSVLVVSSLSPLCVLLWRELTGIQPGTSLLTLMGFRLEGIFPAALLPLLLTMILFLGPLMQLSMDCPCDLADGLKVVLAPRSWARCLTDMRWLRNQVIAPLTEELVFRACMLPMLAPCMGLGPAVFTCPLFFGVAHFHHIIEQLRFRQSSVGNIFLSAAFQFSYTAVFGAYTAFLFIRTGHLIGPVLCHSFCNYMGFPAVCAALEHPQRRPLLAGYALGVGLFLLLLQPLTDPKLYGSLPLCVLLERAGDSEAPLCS
DNA topoisomerase, sequence (A0A2S9PM60 whole entry): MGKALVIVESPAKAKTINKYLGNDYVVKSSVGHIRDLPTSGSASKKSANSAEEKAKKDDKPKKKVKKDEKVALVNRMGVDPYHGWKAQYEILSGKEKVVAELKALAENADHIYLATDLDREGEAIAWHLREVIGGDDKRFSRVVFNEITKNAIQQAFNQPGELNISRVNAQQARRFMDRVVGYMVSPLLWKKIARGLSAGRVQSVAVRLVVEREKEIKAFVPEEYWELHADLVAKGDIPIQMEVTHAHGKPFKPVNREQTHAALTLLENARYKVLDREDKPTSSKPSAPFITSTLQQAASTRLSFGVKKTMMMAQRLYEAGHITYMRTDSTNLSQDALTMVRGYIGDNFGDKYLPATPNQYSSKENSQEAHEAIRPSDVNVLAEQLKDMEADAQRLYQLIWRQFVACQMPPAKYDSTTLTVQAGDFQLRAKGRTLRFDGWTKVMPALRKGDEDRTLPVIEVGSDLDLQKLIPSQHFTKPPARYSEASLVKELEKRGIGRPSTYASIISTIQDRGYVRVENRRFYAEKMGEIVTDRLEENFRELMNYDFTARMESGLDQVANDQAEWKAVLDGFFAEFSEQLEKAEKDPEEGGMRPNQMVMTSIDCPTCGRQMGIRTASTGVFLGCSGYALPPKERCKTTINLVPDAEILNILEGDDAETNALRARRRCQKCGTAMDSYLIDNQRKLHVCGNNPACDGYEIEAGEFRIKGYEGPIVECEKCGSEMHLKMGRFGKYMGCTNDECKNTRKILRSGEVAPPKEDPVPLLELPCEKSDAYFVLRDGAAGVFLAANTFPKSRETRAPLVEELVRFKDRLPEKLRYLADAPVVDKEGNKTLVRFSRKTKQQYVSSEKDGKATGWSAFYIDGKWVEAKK
Acyl-homoserine lactone acylase PvdQ, sequence (Q9I194 24-193 limits assumed): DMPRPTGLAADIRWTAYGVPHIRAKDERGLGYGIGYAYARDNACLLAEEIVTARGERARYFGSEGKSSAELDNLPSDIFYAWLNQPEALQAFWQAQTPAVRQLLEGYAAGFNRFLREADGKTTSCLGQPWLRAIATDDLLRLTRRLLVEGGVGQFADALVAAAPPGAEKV
Acyl-homoserine lactone acylase PvdQ, sequence (Q9I194 217-762 limits assumed): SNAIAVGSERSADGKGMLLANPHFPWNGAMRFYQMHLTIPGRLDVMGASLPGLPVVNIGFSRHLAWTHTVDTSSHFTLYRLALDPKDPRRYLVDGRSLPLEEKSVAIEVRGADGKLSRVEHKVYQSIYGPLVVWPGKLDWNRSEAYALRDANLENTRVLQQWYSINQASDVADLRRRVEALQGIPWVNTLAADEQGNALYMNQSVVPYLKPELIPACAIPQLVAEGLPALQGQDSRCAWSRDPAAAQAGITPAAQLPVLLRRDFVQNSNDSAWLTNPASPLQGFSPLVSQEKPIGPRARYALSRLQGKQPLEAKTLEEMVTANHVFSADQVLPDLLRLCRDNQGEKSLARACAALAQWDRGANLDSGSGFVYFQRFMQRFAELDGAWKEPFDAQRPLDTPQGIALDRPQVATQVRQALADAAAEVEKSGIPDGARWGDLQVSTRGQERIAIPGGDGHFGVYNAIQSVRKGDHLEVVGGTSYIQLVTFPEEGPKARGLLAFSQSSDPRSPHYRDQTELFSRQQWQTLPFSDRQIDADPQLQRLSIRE
Beta-2 adrenergic receptor, sequence (P07550 whole entry): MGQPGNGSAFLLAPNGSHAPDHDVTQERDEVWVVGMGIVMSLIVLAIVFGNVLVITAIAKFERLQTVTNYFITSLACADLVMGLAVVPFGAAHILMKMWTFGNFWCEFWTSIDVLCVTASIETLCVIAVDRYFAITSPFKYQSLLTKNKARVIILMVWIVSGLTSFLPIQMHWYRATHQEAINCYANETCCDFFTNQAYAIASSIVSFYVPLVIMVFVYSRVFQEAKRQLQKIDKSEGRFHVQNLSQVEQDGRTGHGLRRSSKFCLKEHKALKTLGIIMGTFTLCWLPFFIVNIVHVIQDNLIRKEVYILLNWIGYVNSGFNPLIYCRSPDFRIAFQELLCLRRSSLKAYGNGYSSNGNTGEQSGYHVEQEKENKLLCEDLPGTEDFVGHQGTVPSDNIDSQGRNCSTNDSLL
Bcl-2-like protein 10, sequence (Q9HD36 whole entry): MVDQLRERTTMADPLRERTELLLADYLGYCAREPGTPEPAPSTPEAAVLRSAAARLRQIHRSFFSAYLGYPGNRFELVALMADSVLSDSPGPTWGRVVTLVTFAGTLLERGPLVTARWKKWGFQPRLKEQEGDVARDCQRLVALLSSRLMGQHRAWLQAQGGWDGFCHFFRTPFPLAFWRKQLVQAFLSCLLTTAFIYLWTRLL

SMILES: CC1(C)Cc2c(c(-c3ccco3)nc3sc4c(NCCO)ncnc4c23)CO1
- IC50 [1]: 0.909 µM (active)
- IC50 [2]: > 16 µM (inactive)
- EC50 [3]: 0.0133 µM (active)

SMILES: COc1ccc(C2=C(C=O)Cc3ccccc3O2)cc1
- EC50 [4]: > 120 µM (not active)
- EC50 [5]: > 120 µM (not active)
- AC50 [6]: 4.37 µM (active)
- AC50 (HeLa): > 380 µM (inactive)

SMILES: O=C1NC(=O)C2(Cc3c(nc4ccccn4c3=O)N3CCCCCC32)C(=O)N1Cc1ccccc1 (configuration not stated)
- IC50 (Bcl-2-like protein 10): 2.51 µM (active)

SMILES: CC1=C(C)C(C)=C(C#N)C(=C(C#N)C#N)N1
- AC50 (Trypsin): 12.1 µM (active)
- AC50 (CAAX prenyl protease 2 [7]): 13.2 µM (active)
- AC50 (CAAX prenyl protease 2 [8]): 13.9 µM (active)

SMILES: Cc1ccc(O)c(C2=Nc3ccccc3N=C(c3ccco3)C2)c1
- EC50 [9]: > 99 µM (inactive)
- EC50 [10]: 75.1 µM (inactive)

SMILES: CC(C)(C)OC(=O)NCc1ccc(NC(=O)c2[nH]cnc2C(=O)NCCNC(=O)c2nc[nH]c2C(=O)Nc2ccc(CNC(=O)OC(C)(C)C)cc2)cc1
- AC50 (DNA topoisomerase): 2.49 µM (active)
- AC50 (INS1 [11]): 6.59 µM (active)

SMILES: O=C(c1ccc(Cl)cc1)N1CCN(c2cnccn2)CC1
- AC50 (Candida albicans [12]): 10.7 µM (active)
- AC50 (Candida albicans [13]): 12.7 µM (active)
- AC50 (Candida albicans [14]): 234 µM (active)

SMILES: Cc1ccc(S(=O)(=O)N(C)C[C@@H]2Oc3c(NC(=O)Nc4ccccc4)cccc3C(=O)N([C@H](C)CO)C[C@H]2C)cc1
- AC50 (INS1 [15]): 22.6 µM (active)
- AC50 (INS1 [16]): 141 µM (active)

SMILES: O=C(NCCN1CCC2(CC1)C(=O)NCN2c1ccc(F)c(F)c1)c1ccc(Cl)cc1
- IC50 (Phospholipase D1): 2.36 µM (active)
- IC50 (Phospholipase D2): 0.37 µM (active)

SMILES: O=c1c2c(F)cccc2nc(/C=C/c2cccnc2)n1Cc1ccccc1
- IC50 (Hexokinase-1): > 80 µM (inactive)
- IC50 (Hexokinase HKDC1): > 80 µM (inactive)

SMILES: Cc1cc(N2CCCCC2)nc2ccc(F)cc12
- IC50 [17]: 6.18 µM (active)
- IC50 [18]: 20.1 µM (active)
- IC50 [19]: 10.5 µM (active)
